Measured values published in the NIST ThermoML archive (doi:10.1021/acs.jced.5b01048).
± gives the expanded uncertainty stated by the source.

How the values were obtained:
[1] = 293.15 K; 101.33 kPa; Liquid; Buoyancy - hydrostatic balance
[2] = refractive index (Na D-line) (dimensionless); settings: 293.15 K; 101.33 kPa; Liquid; Standard Abbe refractometry

mass density [1] [kg/m3]	refractive index [2]	SMILES
790 ± 1	1.3616 ± 0.0005	CCO [ethanol]
998.4 ± 1	1.3328 ± 0.0005	O [water]
792.2 ± 1	1.3276 ± 0.0005	CO [methanol]

SMILES	mass density [1] [kg/m3]	refractive index [2]
C=CCO [2-propenol]	854 ± 1	1.4119 ± 0.0005
